Several values for one entry are separate records, joined by “and”; a condition that tells them apart may be missing. Equal values may be shown once. Activity calls are given as the source filed them.
What was measured:
[1] = biological target: T1, Sentrin-specific protease 7 (Homo sapiens, UniProt Q9BQF6); assay: SENP7 protease inhibitors, SAR follow-up, biochemical, luminescence, set 2 (AID 588600); format: functional
T1 sequence (Q9BQF6 whole entry): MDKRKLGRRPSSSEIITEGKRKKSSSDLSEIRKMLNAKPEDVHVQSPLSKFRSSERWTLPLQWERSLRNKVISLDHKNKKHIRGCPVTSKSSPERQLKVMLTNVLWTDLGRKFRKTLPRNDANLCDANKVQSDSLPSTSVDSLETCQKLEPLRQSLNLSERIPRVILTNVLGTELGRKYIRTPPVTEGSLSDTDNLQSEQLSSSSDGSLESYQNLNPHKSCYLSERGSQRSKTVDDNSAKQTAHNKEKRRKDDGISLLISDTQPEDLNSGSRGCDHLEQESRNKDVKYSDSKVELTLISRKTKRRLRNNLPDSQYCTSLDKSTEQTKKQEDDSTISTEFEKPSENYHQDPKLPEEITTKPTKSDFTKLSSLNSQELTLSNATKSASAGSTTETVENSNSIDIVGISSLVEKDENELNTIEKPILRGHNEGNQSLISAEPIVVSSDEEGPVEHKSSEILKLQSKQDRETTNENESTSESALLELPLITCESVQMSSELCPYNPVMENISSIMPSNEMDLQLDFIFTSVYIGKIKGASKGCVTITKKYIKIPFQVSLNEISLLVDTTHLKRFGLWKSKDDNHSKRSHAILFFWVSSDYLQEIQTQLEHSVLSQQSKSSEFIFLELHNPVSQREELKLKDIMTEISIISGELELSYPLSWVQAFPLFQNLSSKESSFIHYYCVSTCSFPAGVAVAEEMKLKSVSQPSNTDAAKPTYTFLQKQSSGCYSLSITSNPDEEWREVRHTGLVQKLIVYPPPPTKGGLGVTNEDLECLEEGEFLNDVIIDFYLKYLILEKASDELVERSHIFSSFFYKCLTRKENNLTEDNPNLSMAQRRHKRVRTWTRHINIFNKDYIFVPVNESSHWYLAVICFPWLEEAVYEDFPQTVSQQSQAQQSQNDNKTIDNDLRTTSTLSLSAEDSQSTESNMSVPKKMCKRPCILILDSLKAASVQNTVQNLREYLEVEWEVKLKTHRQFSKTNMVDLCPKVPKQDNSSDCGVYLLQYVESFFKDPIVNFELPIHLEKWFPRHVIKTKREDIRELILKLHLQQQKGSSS

[2] = biological target: T2, Sentrin-specific protease 6 (Homo sapiens, UniProt Q9GZR1); assay: SENP6 protease inhibitors, SAR follow-up, biochemical, luminescence, set 2 (AID 588598); format: functional
T2 sequence (Q9GZR1 whole entry): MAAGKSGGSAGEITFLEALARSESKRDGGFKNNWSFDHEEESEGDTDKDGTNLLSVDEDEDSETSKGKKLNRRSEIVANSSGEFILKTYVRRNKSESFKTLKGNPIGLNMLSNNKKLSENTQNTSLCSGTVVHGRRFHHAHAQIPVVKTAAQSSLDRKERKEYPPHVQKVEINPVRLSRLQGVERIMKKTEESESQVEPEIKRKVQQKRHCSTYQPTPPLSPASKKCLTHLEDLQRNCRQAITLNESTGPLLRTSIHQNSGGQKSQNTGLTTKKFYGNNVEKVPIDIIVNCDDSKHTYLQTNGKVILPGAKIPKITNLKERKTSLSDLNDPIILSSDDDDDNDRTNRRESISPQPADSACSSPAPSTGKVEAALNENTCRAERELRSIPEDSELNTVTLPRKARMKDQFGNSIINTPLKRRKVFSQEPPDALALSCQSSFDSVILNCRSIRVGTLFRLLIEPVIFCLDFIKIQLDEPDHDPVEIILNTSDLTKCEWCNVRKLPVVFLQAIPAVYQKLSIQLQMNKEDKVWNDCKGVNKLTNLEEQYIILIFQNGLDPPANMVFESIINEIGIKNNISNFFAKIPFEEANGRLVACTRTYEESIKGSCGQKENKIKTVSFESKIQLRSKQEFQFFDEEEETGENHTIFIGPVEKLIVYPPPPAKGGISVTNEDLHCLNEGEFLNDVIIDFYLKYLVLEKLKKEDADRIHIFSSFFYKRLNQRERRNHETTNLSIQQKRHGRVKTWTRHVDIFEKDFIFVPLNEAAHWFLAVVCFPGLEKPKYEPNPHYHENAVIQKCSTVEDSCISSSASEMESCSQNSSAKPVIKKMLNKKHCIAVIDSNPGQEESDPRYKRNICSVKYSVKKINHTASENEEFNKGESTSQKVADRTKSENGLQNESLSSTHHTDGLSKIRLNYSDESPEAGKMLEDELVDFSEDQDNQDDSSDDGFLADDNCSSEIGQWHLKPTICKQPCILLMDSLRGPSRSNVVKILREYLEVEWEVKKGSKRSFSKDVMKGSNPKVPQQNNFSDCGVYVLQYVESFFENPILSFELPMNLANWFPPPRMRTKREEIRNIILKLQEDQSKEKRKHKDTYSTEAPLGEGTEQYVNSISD

[3] = biological target: T3, Sentrin-specific protease 8 (Homo sapiens, UniProt Q96LD8); assay: SENP8 protease inhibitors, SAR follow-up, biochemical, luminescence, set 2 (AID 588601); format: functional
T3 sequence (Q96LD8 whole entry): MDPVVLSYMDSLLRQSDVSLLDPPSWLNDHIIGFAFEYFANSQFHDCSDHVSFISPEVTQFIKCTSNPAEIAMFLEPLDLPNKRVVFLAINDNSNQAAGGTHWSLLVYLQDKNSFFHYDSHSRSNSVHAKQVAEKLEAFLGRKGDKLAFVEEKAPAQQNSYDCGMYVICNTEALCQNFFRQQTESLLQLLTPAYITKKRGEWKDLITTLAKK

[4] = biological target: T4, Caspase-3 (Homo sapiens, UniProt P42574); assay: caspase-3 inhibitors as off-family protease, SAR follow-up, selectivity assay for SENP protease inhibitor project, biochemical, luminescence, set 2 (AID 588599); format: functional
T4 sequence (P42574 whole entry): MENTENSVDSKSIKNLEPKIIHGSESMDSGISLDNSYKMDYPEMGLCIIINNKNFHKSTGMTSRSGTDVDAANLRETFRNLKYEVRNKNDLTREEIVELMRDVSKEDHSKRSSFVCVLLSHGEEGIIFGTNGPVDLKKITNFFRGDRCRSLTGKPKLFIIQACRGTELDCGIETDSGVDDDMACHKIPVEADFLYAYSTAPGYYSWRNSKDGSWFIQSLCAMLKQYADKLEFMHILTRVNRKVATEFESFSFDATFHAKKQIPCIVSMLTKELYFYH

[5] = tested on: NIH3T3; assay: cytotoxicity in NIH-3T3 fibroblasts, dose response, cytotoxicity control for antifungal drug resistance project, cell-based, Alamar Blue, fluconazole, dry powder (AID 488809); format: functional; conditions: Mus musculus
[6] = tested on: Candida albicans; assay: single-agent growth inhibition of C. albicans, dose response, counter-screen for antifungal drug resistance project, C. albicans CaCi-2, dry powder (AID 488802); format: functional, organism-based
[7] = tested on: Candida albicans; assay: growth inhibition of resistant C. albicans, dose response, CaCi-8, fluconazole, Alamar Blue, dry powder (AID 488807); format: functional, organism-based
[8] = biological target: Beta-galactosidase (Escherichia coli, UniProt Q8VNN2); assay: beta-galactosidase enzyme inhibitors and activators, dose response, artefact control for CCR6 antagonist project, biochemical, E. coli enzyme, set 3 (AID 504712); format: functional
[9] = biological target: Neurotensin receptor type 1 (Homo sapiens, UniProt P30989); format: functional;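 note: Image-based confirmatory dose-response assay measuring agonist activity at NTR1; NTR1-expressing U2OS osteosarcoma cells imaged for beta-arrestin GFP spot formation; agonist potency where compounds increase beta-arrestin recruitment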
Sequence of Neurotensin receptor type 1 (P30989 whole entry): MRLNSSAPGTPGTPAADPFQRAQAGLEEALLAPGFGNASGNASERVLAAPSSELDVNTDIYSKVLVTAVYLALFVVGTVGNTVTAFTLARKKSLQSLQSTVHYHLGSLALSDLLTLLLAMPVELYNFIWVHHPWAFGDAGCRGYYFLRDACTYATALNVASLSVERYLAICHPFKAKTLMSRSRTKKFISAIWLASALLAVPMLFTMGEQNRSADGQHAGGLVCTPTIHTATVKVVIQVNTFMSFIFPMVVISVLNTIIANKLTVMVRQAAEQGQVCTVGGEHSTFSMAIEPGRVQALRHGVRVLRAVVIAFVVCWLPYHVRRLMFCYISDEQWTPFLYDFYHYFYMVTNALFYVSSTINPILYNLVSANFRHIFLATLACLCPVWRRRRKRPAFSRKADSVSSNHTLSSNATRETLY

[10] = biological target: Induced myeloid leukemia cell differentiation protein Mcl-1 (Homo sapiens, UniProt Q07820); format: functional
Sequence of Induced myeloid leukemia cell differentiation protein Mcl-1 (Q07820 whole entry): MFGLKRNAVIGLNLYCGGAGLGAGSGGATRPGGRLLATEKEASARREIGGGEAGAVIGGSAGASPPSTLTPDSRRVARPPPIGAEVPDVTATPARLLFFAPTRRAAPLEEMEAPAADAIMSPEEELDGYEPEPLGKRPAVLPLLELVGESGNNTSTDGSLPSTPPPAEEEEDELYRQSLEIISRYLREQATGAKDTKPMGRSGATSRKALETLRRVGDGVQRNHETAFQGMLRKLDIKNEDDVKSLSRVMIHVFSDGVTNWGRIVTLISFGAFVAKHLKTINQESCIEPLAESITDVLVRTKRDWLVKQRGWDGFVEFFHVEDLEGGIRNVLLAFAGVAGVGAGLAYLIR

[11] = control 3'UTR Renilla luciferase suppression, dose response, counter-screen for Shn3 inhibitor project, cell-based, Clone20-Shn3RL, cherry-picked (AID 624133); format: functional
[12] = Shn3 3'UTR reporter inhibitors, dose response, cell-based, Clone20 osteoblasts, firefly luciferase, cherry-picked (AID 624132); format: functional;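 note: firefly luciferase luminescence from reporter carrying the Shn3 3'UTR in osteoblasts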
[13] = biological target: Beta Lactamase (Pseudomonas aeruginosa, UniProt Q932Y6); assay: beta-lactamase reporter inhibitor potency, dose response, artefact control for NOD2-RIPK2 interaction inhibitor project, BLA reporter cells, FRET fluorescence (AID 651552); format: functional, cell-based
[14] = biological target: Latent membrane protein 1 (Human herpesvirus 4 (strain B95-8), UniProt P03230); assay: TES1-eGFP NF-kB reporter inhibition versus Tet-On dsRED, dose response, selectivity assay for LMP1 NF-kB inhibitor project, imaging, HEK293T, dual-color eGFP/dsRED, cherry-picks (AID 588398); format: functional, cell-based
[15] = tested on: HEK293; assay: inhibitors of LMP1-driven NF-kB reporter, dose response, cell-based, HEK293, luciferase, cherry-pick (AID 588343); format: functional; conditions: Homo sapiens
[16] = HepG2 cell cytotoxicity, dose response, cytotoxicity control for Shn3 inhibitor project, CellTiter-Glo, cherry-picked (AID 624134); format: functional, cell-based
[17] = Fluorescence-based cell-based high throughput dose response assay for inhibitors of the interaction of nucleotide-binding oligomerization domain containing 2 (NOD2) and the receptor-interacting serine-threonine kinase 2 (RIPK2).; format: functional; conditions: Homo sapiens
[18] = Vero cell cytotoxicity, dose response, cytotoxicity control for M. tuberculosis inhibitor project, purified and synthesized compounds, set 6 (AID 588445); format: functional; conditions: Mycobacterium tuberculosis
[19] = THP-1 cell cytotoxicity, cytotoxicity control, set 5 (AID 588443); format: functional
[20] = Luminescence Cell-Based Dose Confirmation HTS to Identify Inhibitors of Platelet Dense Granule Release. [Related pubchem assays: 1663 (Primary HTS), 1678 (Summary of Project)]; format: functional
[21] = biological target: Luciferin 4-monooxygenase (Photinus pyralis, UniProt P08659); assay: firefly luciferase enzyme inhibitors, dose response, biochemical, luminescence (AID 1891)
[22] = biological target: Scavenger receptor class B member 1 (Mus musculus, UniProt Q61009); assay: inhibitors of SR-BI-mediated HDL uptake, dose response, cell-based, ldlA[mSR-BI] CHO, DiI fluorescence, dry powder, set 10 (AID 624029); format: functional
Sequence of Scavenger receptor class B member 1 (Q61009 whole entry): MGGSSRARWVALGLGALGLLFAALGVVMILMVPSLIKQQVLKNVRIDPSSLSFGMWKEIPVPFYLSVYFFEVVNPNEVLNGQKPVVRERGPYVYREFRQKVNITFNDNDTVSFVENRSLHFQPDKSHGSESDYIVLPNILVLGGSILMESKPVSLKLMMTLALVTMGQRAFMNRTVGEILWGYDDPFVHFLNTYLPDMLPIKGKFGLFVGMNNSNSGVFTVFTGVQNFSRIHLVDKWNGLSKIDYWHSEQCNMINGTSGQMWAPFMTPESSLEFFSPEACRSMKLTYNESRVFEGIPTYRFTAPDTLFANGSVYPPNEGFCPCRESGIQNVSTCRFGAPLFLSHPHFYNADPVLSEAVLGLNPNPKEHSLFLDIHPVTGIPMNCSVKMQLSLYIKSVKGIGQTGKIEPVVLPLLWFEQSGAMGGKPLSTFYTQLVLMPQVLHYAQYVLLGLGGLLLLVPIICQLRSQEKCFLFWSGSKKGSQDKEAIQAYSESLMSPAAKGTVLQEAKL

[23] = biological target: Protein disulfide-isomerase (Homo sapiens, UniProt P07237); assay: PDI inhibitors, insulin aggregation turbidity, dose response, biochemical, absorbance, cherry-picked samples (AID 602350); format: functional
Sequence of Protein disulfide-isomerase (P07237 whole entry): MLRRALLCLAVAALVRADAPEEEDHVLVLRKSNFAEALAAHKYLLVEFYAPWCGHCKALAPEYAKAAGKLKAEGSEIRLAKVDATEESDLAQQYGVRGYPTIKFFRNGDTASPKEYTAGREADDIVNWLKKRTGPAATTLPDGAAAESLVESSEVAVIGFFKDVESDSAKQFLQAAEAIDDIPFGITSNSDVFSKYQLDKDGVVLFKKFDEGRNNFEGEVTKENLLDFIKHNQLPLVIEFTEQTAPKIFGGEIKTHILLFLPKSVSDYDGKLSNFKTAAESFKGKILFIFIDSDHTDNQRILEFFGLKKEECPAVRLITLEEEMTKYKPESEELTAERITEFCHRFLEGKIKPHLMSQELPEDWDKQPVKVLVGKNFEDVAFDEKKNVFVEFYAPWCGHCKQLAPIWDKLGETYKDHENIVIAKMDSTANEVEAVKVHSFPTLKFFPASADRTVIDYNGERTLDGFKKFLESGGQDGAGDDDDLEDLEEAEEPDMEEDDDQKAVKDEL

[24] = biological target: Cell division cycle 7-related protein kinase (Homo sapiens, UniProt O00311); format: functional;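 note: value obtained from a kinome-wide kinase panel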
Sequence of Cell division cycle 7-related protein kinase (O00311 whole entry): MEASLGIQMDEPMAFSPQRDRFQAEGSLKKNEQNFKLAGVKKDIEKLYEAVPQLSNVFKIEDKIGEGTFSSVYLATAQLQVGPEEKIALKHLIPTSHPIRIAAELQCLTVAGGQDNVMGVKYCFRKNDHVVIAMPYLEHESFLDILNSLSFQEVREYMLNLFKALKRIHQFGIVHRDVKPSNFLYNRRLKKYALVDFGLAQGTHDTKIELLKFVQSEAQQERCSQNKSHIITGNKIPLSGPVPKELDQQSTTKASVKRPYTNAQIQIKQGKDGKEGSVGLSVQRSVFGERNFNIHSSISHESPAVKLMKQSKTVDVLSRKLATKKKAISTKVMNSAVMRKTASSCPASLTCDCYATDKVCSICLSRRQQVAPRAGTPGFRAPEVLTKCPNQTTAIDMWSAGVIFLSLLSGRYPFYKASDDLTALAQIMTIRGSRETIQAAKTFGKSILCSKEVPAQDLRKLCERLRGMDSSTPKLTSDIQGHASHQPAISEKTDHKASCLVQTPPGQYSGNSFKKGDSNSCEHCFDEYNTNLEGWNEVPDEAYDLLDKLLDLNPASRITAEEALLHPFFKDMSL

[25] = biological target: Wee1-like protein kinase (Homo sapiens, UniProt P30291); assay: Navigating the Kinome. Panel member name: WEE1; format: functional
[26] = biological target: Mast/stem cell growth factor receptor Kit (Homo sapiens, UniProt P10721); format: functional;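 note: KIT entry within a kinase panel assay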
[27] = biological target: Mitogen-activated protein kinase 13 (Homo sapiens, UniProt O15264); format: functional
Sequence of Mitogen-activated protein kinase 13 (O15264 whole entry): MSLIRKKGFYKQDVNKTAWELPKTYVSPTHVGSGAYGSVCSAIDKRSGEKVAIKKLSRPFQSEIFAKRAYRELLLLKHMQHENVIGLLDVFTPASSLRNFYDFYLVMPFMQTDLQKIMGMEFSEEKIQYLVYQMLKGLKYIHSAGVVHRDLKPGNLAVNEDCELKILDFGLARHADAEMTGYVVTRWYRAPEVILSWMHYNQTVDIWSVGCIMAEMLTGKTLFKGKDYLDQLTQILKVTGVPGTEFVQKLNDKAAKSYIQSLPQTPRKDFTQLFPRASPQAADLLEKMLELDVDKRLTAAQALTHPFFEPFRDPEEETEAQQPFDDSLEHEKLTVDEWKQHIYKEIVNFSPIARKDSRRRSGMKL

[28] = biological target: Homeodomain-interacting protein kinase 2 (Homo sapiens, UniProt Q9H2X6); format: functional;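 note: measured within a kinome-wide kinase profiling panel, HIPK2 being one panel member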
Sequence of Homeodomain-interacting protein kinase 2 (Q9H2X6 whole entry): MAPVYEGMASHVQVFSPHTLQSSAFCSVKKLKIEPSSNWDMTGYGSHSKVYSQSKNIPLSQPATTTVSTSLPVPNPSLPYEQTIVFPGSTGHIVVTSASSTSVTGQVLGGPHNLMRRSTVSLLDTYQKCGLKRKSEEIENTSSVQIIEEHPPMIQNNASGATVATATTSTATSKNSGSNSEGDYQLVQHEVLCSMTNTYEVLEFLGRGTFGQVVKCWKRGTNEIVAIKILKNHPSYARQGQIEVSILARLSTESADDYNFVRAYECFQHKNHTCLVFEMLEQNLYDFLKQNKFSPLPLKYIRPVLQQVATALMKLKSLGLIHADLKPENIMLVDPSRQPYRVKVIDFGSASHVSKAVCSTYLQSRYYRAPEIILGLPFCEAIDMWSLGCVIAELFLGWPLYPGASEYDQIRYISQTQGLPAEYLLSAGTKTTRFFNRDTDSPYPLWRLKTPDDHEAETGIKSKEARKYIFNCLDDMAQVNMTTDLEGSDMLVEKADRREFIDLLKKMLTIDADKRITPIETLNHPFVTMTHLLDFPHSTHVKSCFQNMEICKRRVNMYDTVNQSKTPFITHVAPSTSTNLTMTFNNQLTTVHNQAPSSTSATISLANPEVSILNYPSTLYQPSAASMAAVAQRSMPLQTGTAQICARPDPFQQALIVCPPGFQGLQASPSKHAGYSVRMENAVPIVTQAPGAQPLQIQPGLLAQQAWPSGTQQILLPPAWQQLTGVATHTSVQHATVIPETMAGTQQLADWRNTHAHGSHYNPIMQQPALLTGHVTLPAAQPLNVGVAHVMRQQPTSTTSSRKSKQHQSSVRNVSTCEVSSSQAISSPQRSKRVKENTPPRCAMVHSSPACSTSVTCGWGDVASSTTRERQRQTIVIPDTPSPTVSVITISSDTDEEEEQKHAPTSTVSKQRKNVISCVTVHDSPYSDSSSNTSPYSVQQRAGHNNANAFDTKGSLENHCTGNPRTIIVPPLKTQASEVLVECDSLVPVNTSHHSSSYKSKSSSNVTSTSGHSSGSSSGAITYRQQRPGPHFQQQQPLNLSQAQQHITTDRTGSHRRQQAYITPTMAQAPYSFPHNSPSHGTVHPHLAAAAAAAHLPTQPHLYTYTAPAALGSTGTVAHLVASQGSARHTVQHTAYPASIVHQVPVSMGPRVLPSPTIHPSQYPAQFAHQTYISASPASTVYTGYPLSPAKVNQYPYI

[29] = biological target: cAMP-dependent protein kinase catalytic subunit alpha (Homo sapiens, UniProt P17612); format: functional
[30] = biological target: Serine/threonine-protein kinase pim-1 (Homo sapiens, UniProt P11309); format: functional
[31] = biological target: Interleukin-1 receptor-associated kinase 4 (Homo sapiens, UniProt Q9NWZ3); format: functional
[32] = biological target: Glycogen synthase kinase-3 beta (Homo sapiens, UniProt P49841); format: functional;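 note: value comes from a broad kinome profiling panel, with GSK3B as the panel member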
Sequence of Glycogen synthase kinase-3 beta (P49841 whole entry): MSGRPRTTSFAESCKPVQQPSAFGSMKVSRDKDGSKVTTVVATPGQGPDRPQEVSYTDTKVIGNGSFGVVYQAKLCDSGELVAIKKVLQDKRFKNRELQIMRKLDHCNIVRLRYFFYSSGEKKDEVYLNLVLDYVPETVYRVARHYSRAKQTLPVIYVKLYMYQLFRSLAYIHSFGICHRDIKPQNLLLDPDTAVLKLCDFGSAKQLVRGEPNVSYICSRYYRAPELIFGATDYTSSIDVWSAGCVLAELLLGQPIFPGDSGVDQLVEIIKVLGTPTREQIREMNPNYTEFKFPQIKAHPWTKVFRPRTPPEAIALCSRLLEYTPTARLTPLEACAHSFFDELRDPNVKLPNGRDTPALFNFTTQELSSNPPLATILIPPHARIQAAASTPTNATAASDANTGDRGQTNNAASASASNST

[33] = biological target: Mitogen-activated protein kinase kinase kinase kinase 4 (Homo sapiens, UniProt O95819); format: functional
[34] = biological target: Dual specificity protein kinase CLK4 (Homo sapiens, UniProt Q9HAZ1); format: functional
[35] = biological target: Cyclin-dependent kinase 19 (Homo sapiens, UniProt Q9BWU1); assay: Navigating the Kinome. Panel member name: CDC2L6; format: functional
[36] = biological target: Cyclin-dependent kinase 8 (Homo sapiens, UniProt P49336); assay: Navigating the Kinome. Panel member name: CDK8; format: functional
Sequence of Cyclin-dependent kinase 8 (P49336 whole entry): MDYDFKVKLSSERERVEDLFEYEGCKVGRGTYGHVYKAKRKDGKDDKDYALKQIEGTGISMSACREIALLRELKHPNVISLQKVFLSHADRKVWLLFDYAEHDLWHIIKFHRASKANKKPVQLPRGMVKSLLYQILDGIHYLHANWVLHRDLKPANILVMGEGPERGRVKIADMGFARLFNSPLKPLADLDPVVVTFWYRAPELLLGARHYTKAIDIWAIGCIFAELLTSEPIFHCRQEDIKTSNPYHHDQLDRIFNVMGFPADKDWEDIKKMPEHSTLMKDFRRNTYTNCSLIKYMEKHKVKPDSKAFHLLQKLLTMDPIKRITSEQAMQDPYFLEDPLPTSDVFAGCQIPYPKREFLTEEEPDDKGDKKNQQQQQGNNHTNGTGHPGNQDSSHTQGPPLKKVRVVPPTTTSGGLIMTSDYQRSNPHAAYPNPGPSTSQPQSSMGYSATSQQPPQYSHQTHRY

## NS(=O)(=O)c1ccc(CCNC(=O)C(=O)c2c[nH]c3ccccc23)cc1
[1]
  IC50: > 99 µM (inactive)
[2]
  IC50: > 99 µM (inactive)
[3]
  IC50: > 99 µM (inactive)
[4]
  IC50: > 99 µM (inactive)

## COc1ccc(NC(=O)Cn2c3ccccc3c3nc4n(c(=O)c32)CCS4)cc1
[5]
  AC50: 34.2 µM (active)
[6]
  AC50: 50.1 µM (active)
[7]
  AC50: 12.7 µM (active)

## CCOc1ccc(/C=C/[N+](=O)[O-])c2ccccc12
[8]
  IC50: > 66.6 µM (inactive)
[9]
  EC50: 9.56 µM (active)
[10]
  IC50: 2.18 µM (active)
[11]
  AC50: 13.9 µM (active)
[12]
  AC50: 4.27 µM (active)
[13]
  IC50: 43.1 µM (inactive)
[14]
  AC50: 1.63 µM (active)
[15]
  AC50: 4.67 µM (active)
[16]
  AC50: 3.78 µM (active)
[17]
  IC50: 1.76 µM (active)

## O=C(NCCc1ccc(Cl)cc1)c1ccc(CNc2c(N3CCOCC3)c(=O)c2=O)cc1
[18]
  CC50: > 100 µM (active)
[19]
  CC50: > 100 µM (active)
[20]
  EC50: > 112 µM (not active)
[21]
  EC50: > 112 µM (not active)

## C[C@@H]1CN([C@H](C)CO)C(=O)c2cc(NC(=O)Cc3cn(C)c4ccccc34)ccc2O[C@H]1CN(C)S(=O)(=O)c1ccc(F)cc1
[22]
  AC50: 0.00202 µM (active)
[23]
  AC50: 1.26 µM (active) and 16.4 µM (active)

## c1cc(NC2CCCCC2)nc(Nc2ccc3cn[nH]c3c2)n1
[24]
  Ki: 2 µM (active)
[25]
  Ki: 1 µM (active)

## COc1cc(-c2nn(C3CCC(N4CCN(C(C)=O)CC4)CC3)c3ncnc(N)c23)ccc1NC(=O)c1cc2ccccc2n1C (configuration not stated)
[26]
  Ki: > 1.26 µM (inactive)
[27]
  Ki: > 7.94 µM (inactive)

## NC(=O)c1ccc(Nc2ncnc3[nH]cc(-c4ccccc4)c23)cc1
[28]
  Ki: 0.2 µM (active)
[29]
  Ki: 2 µM (active)
[30]
  Ki: 3.98 µM (active)
[24]
  Ki: 0.0126 µM (active)
[31]
  Ki: 0.0631 µM (active)
[32]
  Ki: 0.158 µM (active)
[33]
  Ki: 0.0398 µM (active)
[34]
  Ki: 0.01 µM (active)

## Nc1nsc2cccc(C(=O)Nc3cccc(CNC(=O)Nc4cccc(F)c4)c3)c12
[35]
  Ki: > 100 µM (inactive)
[36]
  Ki: 3.98 µM (active)

Source: ChEMBL document CHEMBL1201862, “PubChem BioAssay data set” (2004)
